Measured values from ChEMBL document CHEMBL1201862, “PubChem BioAssay data set” (2004).
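Compound exposure: 48 hours, 5 concentrations, 96-well plates. GI50 marks 50% less growth.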 The source made the active and inactive calls. Rule as the data show it: active = GI50 up to about 1.1 µM and inactive = higher.

How the values were obtained:
Assay in all cases: growth of human tumour cells (NCI), 48 h
[1] = system: SNB-75
[2] = system: CCRF-CEM
[3] = system: SNB-78
[4] = system: RXF 393
[5] = system: M19-MEL
[6] = system: SF-295
[7] = system: UACC-257
[8] = system: DLD-1
[9] = system: Malme-3M
[10] = system: SF-268
[11] = system: HT-29
[12] = system: A549
[13] = system: HCT-15
[14] = system: LOX IMVI
[15] = system: HCT-116
[16] = system: U-251
[17] = system: K562
[18] = system: NCI-H226
[19] = system: UACC-62
[20] = system: XF498

CN(C)CCCNC(=O)c1cccc2ccccc12
GI50 [1]: > 100 µM (inactive)
GI50 [2]: > 100 µM (inactive)
GI50 [3]: > 100 µM (inactive)
GI50 [4]: > 100 µM (inactive)
GI50 [5]: > 10 µM (inactive)
GI50 [6]: > 100 µM (inactive)
GI50 [7]: > 100 µM (inactive)
GI50 [8]: > 100 µM (inactive)
GI50 [9]: > 100 µM (inactive)
GI50 [10]: > 100 µM (inactive)
GI50 [11]: > 100 µM (inactive)
GI50 [12]: > 100 µM (inactive)
GI50 [13]: > 100 µM
GI50 [14]: > 100 µM (inactive)
GI50 [15]: > 100 µM (inactive)
GI50 [16]: > 100 µM (inactive)
GI50 [17]: > 100 µM (inactive)
GI50 [18]: > 100 µM (inactive)
GI50 [19]: > 100 µM (inactive)
GI50 [20]: > 100 µM (inactive)
